Experimental data: patent publication US5427766A, “Radiolabeled steroids for use in radiochemical-guided surgery” (priority 1993, dated 1995)

Assay: physchem
Type: physicochemical
Details: solid state
Description: (Z)-Stannyl olefin 4 (25 mg, 41 μmol) was added to 1 mL of chloroform and iodine (10.9 mg, […]) was added with stirring. Rapid decoloration took place and an additional amount of iodine (1 mg) was added which imparted a pink color. Several drops of methanolic potassium fluoride was added which precipitated a tin complex. To the slurry was added 0.5 mL of saturated […] and the organic phase was separated, dried over sodium sulfate and evaporated to give an oil. This material was chromatographed using 2 percent methanol in chloroform on a 1 cm×10 cm flash gel column to give (Z)-iodo olefin 5 (15.3 mg) in 84 percent yield as a white solid.

**Q.** For `CC[C@H]1C[C@@]2(C)[C@@H](CC[C@@]2(O)/C=C\I)[C@@H]2CCc3cc(O)ccc3[C@@H]12` [(Z)-iodo olefin 5, 11β-Ethyl-17α-(Z)-(iodovinyl)estra-3,17β-diol], which protodestannylation in product (a week at 25° C., HPLC 254 nm) is on record?
**A.** Its protodestannylation in product is 3.4 area percent.

**Q.** What about the “suspect (E)-iodo” value (a week at 25° C., HPLC 254 nm) of the same molecule?
**A.** Its value is 10.9 area percent.

**Q.** And the remaining at 168 h?
**A.** The remaining at 168 h was 74%.
